Patent US20250197414A1, “SALT FORM AND CRYSTAL FORM OF VANIN ENZYME INHIBITOR, METHOD FOR PREPARING SAME, AND USE THEREOF” (SHANGHAI MEIYUE BIOTECH DEVELOPMENT CO., LTD., priority 2022, published 2025)
Read-outs that look alike come from different tables or passages of the source. Blank lines part the entries; values can stand above or below the compound they belong to.

Legend:
Assay type in all cases: physicochemical
[1] = Solubility test of compound of formula I and its salts at 37° C.; details: for solubility at 1 h / solubility at 24 h: thermodynamic from solid; for solubility at 1 h / solubility at 24 h / Solubility (mg/mL) (1 h) / Solubility (mg/mL) (24 h): calculated as free base; for solubility at 1 h: read-out: Solubility (mg/mL) (1 h); for solubility at 24 h: read-out: Solubility (mg/mL) (24 h); for solubility (in words): water, pH 7.4 at 37° C.
Procedure: The solubility of the compound of formula I and the L-tartrate, fumarate, and D-malate thereof was studied in water, SGF, FaSSIF, FeSSIF, and pH 7.4 at 37° C.
Experimental method: 30 mg (in water) or 15 mg of the sample was weighed into a 4 mL vial, then 3 mL of the medium to be tested was added thereto, and the resulting mixture was stirred continuously at 37° C. 0.5 mL of the sample was collected at 1 hour and 24 hours, respectively, and centrifuged at 12,000 rpm for 5 minutes. The supernatant was diluted to an appropriate multiple with 50% acetonitrile and its concentration was determined.
Therefore, 13 mg of the fumarate of the compound of formula I was weighed into a 25 mL volumetric flask (approximately 10 mg added to the 25 mL volumetric flask, calculated as free base), dissolved in 50% acetonitrile aqueous solution and diluted to the scale, and two samples were prepared in parallel. STD-1 was diluted to 200 μg/mL, 50 μg/mL, and 10 μg/mL with 50% acetonitrile aqueous solution. 5 μL of the sample was injected, and the standard curve was plotted.

[2] = Hygroscopicity (dynamic vapor sorption classification)
Procedure: Approximately 10 mg of the sample was weighed at 25° C. under a 0% to 95% to 0% relative humidity (RH) cycle for testing the moisture absorption/desorption characteristics.

[3] = Stability test of mono-L-tartrate, fumarate and D-malate (related substances by HPLC); details: for Purity (HPLC): in % (unit assumed); for chemical stability: after accelerated high humidity and high temperature testing
Procedure: The stability of the mono-L-tartrate, fumarate, and D-malate of the compound of formula I obtained in examples 1 to 3 was studied. […]
Detection of related substances: Approximately 5 mg of the sample was weighed into a 40 mL sample vial, dissolved in 10 mL of 50% acetonitrile aqueous solution and diluted to the scale, and 5 μL of the sample was injected.

[4] = Stability study on crystal form A (related substances by HPLC, crystal form by XRPD)
Procedure: Detection method of stability sample related substances: Approximately 5 mg of the sample was weighed, added with 5 mL of 20% methanol, ultrasonicated for a few seconds so that the compound can be completely dissolved, and 5 μL of the sample was injected for testing of related substances.

[5] = pH 7.4 medium, aqueous buffer, pH 7.4, 37° C.
[6] = simulated gastric fluid, SGF, 37° C.

Compound: O=C(c1ccc(N[C@@H]2CCc3ncccc32)nc1)N1CCC2(CCOCC2)C1 [Compound of formula I]
- Final pH ([1]; FaSSIF, 37° C.): 6.38
- Sample appearance ([1]; FaSSIF, 37° C.): Clarified solution
- Final pH ([1]; FeSSIF, 37° C.): 4.99
- Sample appearance ([1]; FeSSIF, 37° C.): Clarified solution
- Final pH ([1]; SGF, 37° C.): 1.37
- Sample appearance ([1]; SGF, 37° C.): Clarified solution
- Final pH ([1]; Water, 37° C.): 7.32
- Sample appearance ([1]; Water, 37° C.): Clarified solution
- Final pH ([1]; pH 7.4, 37° C.): 7.56
- Sample appearance ([1]; pH 7.4, 37° C.): Clarified solution
- solubility at 1 h [1, 5]: 5.11 mg/mL
- solubility at 24 h [1, 5]: 5.2 mg/mL
- solubility at 1 h [1, 6]: 5.23 mg/mL
- solubility at 24 h [1, 6]: 5.39 mg/mL
- solubility at 1 h ([1]; FaSSIF, 37° C.): 5.1 mg/mL
- solubility at 24 h ([1]; FaSSIF, 37° C.): 5.22 mg/mL
- solubility at 1 h ([1]; FeSSIF, 37° C.): 5.46 mg/mL
- solubility at 24 h ([1]; FeSSIF, 37° C.): 5.33 mg/mL
- solubility at 1 h ([1]; Water, 37° C.): 10.6 mg/mL
- solubility at 24 h ([1]; Water, 37° C.): 10.8 mg/mL
- solubility (in words) ([1]; SGF, FaSSIF, FeSSIF): good solubility
- hygroscopicity [2]: highly hygroscopic

Compound: O=C(O)CC(O)C(=O)O.O=C(c1cnc(NC2CCc3ncccc32)nc1)N1CCC2(CCOCC2)C1 [D-malate of compound of formula I]
- Total impurities % ([3]; 40° C./75% RH-closed-20 d): 0.09%
- Purity (HPLC) ([3]; 40° C./75% RH-closed-20 d): 99.91
- Total impurities % ([3]; 40° C./75% RH-open-20 d): 0.10%
- Purity (HPLC) ([3]; 40° C./75% RH-open-20 d): 99.90
- Total impurities % ([3]; 60° C.-open-20 d): 0.18%
- Purity (HPLC) ([3]; 60° C.-open-20 d): 99.82
- Total impurities % ([3]; Initial): 0.11%
- Purity (HPLC) ([3]; Initial): 99.89
- chemical stability [3]: good chemical stability
- Sample appearance ([1]; FaSSIF, 37° C.): Clarified solution
- Solubility (mg/mL) (1 h) ([1]; FaSSIF, 37° C.): 5.26 mg/mL
- Solubility (mg/mL) (24 h) ([1]; FaSSIF, 37° C.): 5.36 mg/mL
- Sample appearance ([1]; FeSSIF, 37° C.): Clarified solution
- Solubility (mg/mL) (1 h) ([1]; FeSSIF, 37° C.): 5.31 mg/mL
- Solubility (mg/mL) (24 h) ([1]; FeSSIF, 37° C.): 5.28 mg/mL
- Sample appearance ([1]; SGF, 37° C.): Clarified solution
- Solubility (mg/mL) (1 h) ([1]; SGF, 37° C.): 5.36 mg/mL
- Solubility (mg/mL) (24 h) ([1]; SGF, 37° C.): 5.37 mg/mL
- Final pH ([1]; Water, 37° C.): 3.75
- Sample appearance ([1]; Water, 37° C.): Clarified solution
- Solubility (mg/mL) (1 h) ([1]; Water, 37° C.): 10.60 mg/mL
- Solubility (mg/mL) (24 h) ([1]; Water, 37° C.): 10.76 mg/mL
- Sample appearance ([1]; pH 7.4, 37° C.): Clarified solution
- Solubility (mg/mL) (1 h) ([1]; pH 7.4, 37° C.): 5.54 mg/mL
- Solubility (mg/mL) (24 h) ([1]; pH 7.4, 37° C.): 5.53 mg/mL
- solubility (in words) ([1]; SGF, FaSSIF, FeSSIF): good solubility

Second part, the compound after the results:

- Total impurities % ([3]; 40° C./75% RH-closed-2 wks): 0.30%
- Purity (HPLC) ([3]; 40° C./75% RH-closed-2 wks): 99.70
- Total impurities % ([3]; 40° C./75% RH-open-2 wks): 0.31%
- Purity (HPLC) ([3]; 40° C./75% RH-open-2 wks): 99.69
- Total impurities % ([3]; 60° C.-open-2 wks): 0.32%
- Purity (HPLC) ([3]; 60° C.-open-2 wks): 99.68
- Total impurities % ([3]; Initial): 0.31%
- Purity (HPLC) ([3]; Initial): 99.69
- chemical stability [3]: good chemical stability
- Sample appearance ([1]; FaSSIF, 37° C.): Clarified solution
- Solubility (mg/mL) (1 h) ([1]; FaSSIF, 37° C.): 5.44 mg/mL
- Solubility (mg/mL) (24 h) ([1]; FaSSIF, 37° C.): 5.57 mg/mL
- Sample appearance ([1]; FeSSIF, 37° C.): Clarified solution
- Solubility (mg/mL) (1 h) ([1]; FeSSIF, 37° C.): 5.75 mg/mL
- Solubility (mg/mL) (24 h) ([1]; FeSSIF, 37° C.): 5.63 mg/mL
- Sample appearance ([1]; SGF, 37° C.): Clarified solution
- Solubility (mg/mL) (1 h) ([1]; SGF, 37° C.): 5.37 mg/mL
- Solubility (mg/mL) (24 h) ([1]; SGF, 37° C.): 5.46 mg/mL
- Final pH ([1]; Water, 37° C.): 3.32
- Sample appearance ([1]; Water, 37° C.): Clarified solution
- Solubility (mg/mL) (1 h) ([1]; Water, 37° C.): 11.05 mg/mL
- Solubility (mg/mL) (24 h) ([1]; Water, 37° C.): 11.37 mg/mL
- Sample appearance ([1]; pH 7.4, 37° C.): Clarified solution
- Solubility (mg/mL) (1 h) ([1]; pH 7.4, 37° C.): 5.65 mg/mL
- Solubility (mg/mL) (24 h) ([1]; pH 7.4, 37° C.): 5.61 mg/mL
- solubility (in words) ([1]; SGF, FaSSIF, FeSSIF): good solubility
Compound: O=C(O)C=CC(=O)O.O=C(c1cnc(NC2CCc3ncccc32)nc1)N1CCC2(CCOCC2)C1 (centres unmarked) [Fumarate of compound of formula I]

- Total impurities % ([3]; 40° C./75% RH-closed-2 wks): 0.06%
- Purity (HPLC) ([3]; 40° C./75% RH-closed-2 wks): 99.94
- Total impurities % ([3]; 40° C./75% RH-open-2 wks): 0.10%
- Purity (HPLC) ([3]; 40° C./75% RH-open-2 wks): 99.90
- Total impurities % ([3]; 60° C.-open-2 wks): 0.08%
- Purity (HPLC) ([3]; 60° C.-open-2 wks): 99.92
- Total impurities % ([3]; Initial): 0.06%
- Purity (HPLC) ([3]; Initial): 99.94
- chemical stability [3]: good chemical stability
- Final pH ([1]; FaSSIF, 37° C.): 3.84
- Sample appearance ([1]; FaSSIF, 37° C.): Clarified solution
- Sample appearance ([1]; FeSSIF, 37° C.): Clarified solution
- Sample appearance ([1]; SGF, 37° C.): Clarified solution
- Final pH ([1]; Water, 37° C.): 3.21
- Sample appearance ([1]; Water, 37° C.): Clarified solution
- Sample appearance ([1]; pH 7.4, 37° C.): Clarified solution
- solubility at 1 h [1, 5]: 5.09 mg/mL
- solubility at 24 h [1, 5]: 4.97 mg/mL
- solubility at 1 h [1, 6]: 5.19 mg/mL
- solubility at 24 h [1, 6]: 5.25 mg/mL
- solubility at 1 h ([1]; FaSSIF, 37° C.): 5.08 mg/mL
- solubility at 24 h ([1]; FaSSIF, 37° C.): 5.12 mg/mL
- solubility at 1 h ([1]; FeSSIF, 37° C.): 5.12 mg/mL
- solubility at 24 h ([1]; FeSSIF, 37° C.): 5.02 mg/mL
- solubility at 1 h ([1]; Water, 37° C.): 10.3 mg/mL
- solubility at 24 h ([1]; Water, 37° C.): 10.5 mg/mL
- solubility (in words) ([1]; SGF, FaSSIF, FeSSIF): good solubility
Compound: O=C(c1cnc(N[C@@H]2CCc3ncccc32)nc1)N1CCC2(CCOCC2)C1 [Mono-L-tartrate of compound of formula I]

- Individual impurities % ([4]; 40° C./75% RH-closed-2 wks): 0.04%
- Purity % ([4]; 40° C./75% RH-closed-2 wks): 99.92%
- Total impurities % ([4]; 40° C./75% RH-closed-2 wks): 0.08%
- Individual impurities % ([4]; 40° C./75% RH-open-2 wks): 0.06%
- Purity % ([4]; 40° C./75% RH-open-2 wks): 99.89%
- Total impurities % ([4]; 40° C./75% RH-open-2 wks): 0.11%
- Individual impurities % ([4]; 60° C.-open-2 wks): 0.06%
- Purity % ([4]; 60° C.-open-2 wks): 99.87%
- Total impurities % ([4]; 60° C.-open-2 wks): 0.13%
- Individual impurities % ([4]; 80% RH-open-2 wks): 0.05%
- Purity % ([4]; 80% RH-open-2 wks): 99.90%
- Total impurities % ([4]; 80% RH-open-2 wks): 0.10%
- Individual impurities % ([4]; 92.5% RH-open-2 wks): 0.06%
- Purity % ([4]; 92.5% RH-open-2 wks): 99.89%
- Total impurities % ([4]; 92.5% RH-open-2 wks): 0.11%
- Individual impurities % ([4]; Initial): 0.04%
- Purity % ([4]; Initial): 99.92%
- Total impurities % ([4]; Initial): 0.08%
- change of crystal form ([4]; at 60° C. under high humidity conditions of 80% RH): has not changed
- crystal form obtained after exposure ([4]; exposed to 92.5% RH for 3 days): crystal form B
- stability (in words) ([4]; high temperature and high humidity conditions): good stability
Compound: O=C(O)C(O)C(O)C(=O)O.O=C(c1cnc(NC2CCc3ncccc32)nc1)N1CCC2(CCOCC2)C1 (centres unmarked) [crystal form A]
